The text below walks through data of patent US20220264887A1, “Foam Formulations For Decontamination Of Surfaces With Minimum Wastewater” (The Trustees of Columbia University in the City of New York, priority 2020, published 2022).

Holding throughout (format): physicochemical
Series [1] in a line: Surface tension / CMC of surfactants and mixtures by tensiometer, with and without hypochlorite. The following applies: for change of CMC value in the presence of hypochlorite: presence vs absence of hypochlorite; for No hypochlorite (CMC): after 24 hours of preparation. How it is done:
Thus, the foam formulations were stable in terms of surfactants retaining their surface activity for the foam-deployment-on-surface application.
The surface tension values for pure surfactants and their mixtures—formulations—were determined in the presence and absence of hypochlorite (Table 1). […] The surface tension values for CAPB, taurate, SDS, and surfactin determined after 24 hours of preparation of these solutions, and in the absence and presence of hypochlorite are given in Table 1 and FIGS. 1, 2, and 3; Taurate was used for fundamental reasons and was not considered in preparing the final formulation(s). (The surface tension values were determined using a tensiometer.)
(§1) The CMC values for these surfactants in the absence of hypochlorite, were as reported in the literature. […] A chlorine strip was used to determine hypochlorite degradation.

Series [2] in a line: Raman microscopy of hypochlorite degradation (ClO-/ClO4- peak ratio). The following applies: freshly prepared 1% solution in water. An excerpt: To monitor degradation of hypochlorite in the formulations (liquids), foams, and deposit residues, one can use Raman microscopy. Raman spectra were acquired using a Horiba Aramis confocal Raman microscope with a 10× objective (numerical aperture 0.25), a 1200 grooves/mm diffraction grating, and a 17-mW 633-nm HeNe laser without attenuation. The monochromator was calibrated before each set of measurements using the Si peak at 520.7 cm-1 of a Si wafer reference sample.
The degradation of hypochlorite ion (ClO—) was assessed by the intensity ratio of the main Raman peaks of ClO— at 715 cm-1 and perchlorate ClO4- at 937 cm-1 (FIG. 8). Perchlorate is a product of the final degradation of hypochlorite.

Series [3] can be described thus: Hypochlorite degradation in formulation by chlorine strip. As to conditions: after 24 hrs.
Excerpt: as §1

The mark [4] stands for this setting: presence of hypochlorite 0.7-1 wt. % CL.

As for `NCCS(=O)(=O)O` [Taurate], the “change of CMC value in the presence of hypochlorite” value (“change of CMC value” below) in series [1] was “increased slightly”.

As for cocamidopropyl betaine [CAPB], in series [1] (absence of hypochlorite), the Min surface tension was found to be 28 mN/m and the “No hypochlorite (CMC)” value came out at 0.3 g/L. In series [1] (setting [4]), the “0.7-1% hypochlorite (CMC)” value was determined as 0.31 g/L and the Min surface tension is on record as 28 mN/m. Also, the “change of CMC value” value in series [1] is on record as “a small decrease or no change”.

With `[Na+].[O-]Cl` [hypochlorite, sodium hypochlorite], in series [2], the “ClO-/ClO4- Raman peak ratio” value is reported as “about 2”. For the same compound, the “fraction of hypochlorite already degraded” value in series [2] (from peak ratio) is on record as “about 30%”. Moreover, in series [3], the “decrease of hypochlorite concentration in the formulation” value is reported as 30-40%.

On to `CCCCCCCCCCCCOS(=O)(=O)[O-].[Na+]` [SDS, Sodium dodecyl sulfate], for which, in series [1] (absence of hypochlorite), the Min surface tension amounted to 28 mN/m and the “No hypochlorite (CMC)” value is reported as 2.4 g/L. In series [1] (setting [4]), the “0.7-1% hypochlorite (CMC)” value was 2.6 g/L and the Min surface tension turned out to be 28 mN/m. For the same compound, the “change of CMC value” value in series [1] is recorded as “increased slightly”.
